# Measured values reported in patent US20070128217A1 (priority 2003, published 2007).
# Columns and labels:
# [1] = system: recombinant human anti-SARS-CoV antibody 03-018; format: binding; design: Binding of antibody 03-018 to linear peptides of the N protein of SARS-CoV Urbani / Binding of antibody 03-018 to looped/cyclic peptides of the N protein of SARS-CoV Urbani: unit not given here
# [2] = system: control sera (pooled serum of ten healthy LUMC hospital workers; commercial negative donor pooled serum from the Dutch bloodbank); format: binding, human; design: Binding of Control serum LUMC to linear peptides / Binding of Control serum Blood-bank to linear peptides / Binding of Control serum LUMC to looped peptides / Binding of Control Serum Blood-Bank to Looped peptides / Binding of Control serum LUMC to linear peptides of the protein M of SARS-CoV Urbani / Binding of Control serum Blood-bank to linear peptides of the protein M of SARS-CoV Urbani / Binding of Control serum LUMC to looped peptides of the protein M of SARS-CoV Urbani / Binding of Control Serum Blood-Bank to Looped peptides of the protein M of SARS-CoV Urbani: unit not given here
# [3] = system: rabbit serum obtained by immunizing a rabbit with the SARS-CoV strain Frankfurt 1; format: binding; design: Binding of a rabbit serum to linear peptides / Binding of a rabbit serum to looped peptides / Rabbit serum linear peptides / Rabbit serum looped peptides / Binding of a rabbit serum to linear peptides of protein N of SARS-CoV Urbani (Rabbit serum linear peptides) / Binding of a rabbit serum to looped/cyclic peptides of protein N of SARS-CoV Urbani (Rabbit serum looped peptides): unit not given here
# [4] = system: antibodies in sera from SARS patients (sera 1a, 1b, 2, 6, 37, 62, London, SARS-yellow, SARS-green); format: binding, human; design: Binding of serum 6 to linear peptides of protein X1 of SARS-CoV Urbani / Binding of serum 37 to linear peptides of protein X1 of SARS-CoV Urbani / Binding of serum 6 to looped/cyclic peptide (PEPSCAN-ELISA) / Binding of serum 37 to looped/cyclic peptide (PEPSCAN-ELISA) / Binding of serum 37 to looped/cyclic peptides of protein X1 of SARS-CoV Urbani / Binding of serum 6 to linear peptides of protein X2 / Binding of serum 37 to linear peptides of protein X2 / Binding of serum 37 to looped/cyclic peptides of protein X2 of SARS-CoV Urbani / Binding of serum 6 to linear peptides of protein M of SARS-CoV Urbani / Binding of serum 37 to linear peptides of protein M of SARS-CoV Urbani / Binding of serum 6 to looped/cyclic peptides of protein M of SARS-CoV Urbani / Binding of serum 37 to looped/cyclic peptides of protein M of SARS-CoV Urbani / Binding of serum 6 to linear peptides of protein X3 of SARS-CoV Urbani / Binding of serum 37 to linear peptides of protein X3 of SARS-CoV Urbani / Binding of serum 37 to looped/cyclic peptides of protein X3 of SARS-CoV Urbani / Binding of serum 6 to linear peptides of protein X4 of SARS-CoV Urbani / Binding of serum 37 to linear peptides of protein X4 of SARS-CoV Urbani / Binding of serum 37 to looped/cyclic peptides of protein X4 of SARS-CoV Urbani / Binding of serum 6 to linear peptides of protein X5 of SARS-CoV Urbani / Binding of serum 37 to linear peptides of protein X5 of SARS-CoV Urbani / Binding of serum 37 to looped/cyclic peptides of protein X5 of SARS-CoV Urbani / Binding of serum 6 to linear peptides of protein N of SARS-CoV Urbani / Binding of serum 37 to linear peptides of protein N of SARS-CoV Urbani / Binding of serum 6 to linear peptide (PEPSCAN-ELISA) / Binding of serum 1a to looped/cyclic peptides of protein N of SARS-CoV Urbani / Binding of serum 1b to looped/cyclic peptides of protein N of SARS-CoV Urbani / Binding of serum 2 to looped/cyclic peptides of protein N of SARS-CoV Urbani / Binding of serum 6 to looped/cyclic peptides of protein N of SARS-CoV Urbani / Binding of serum 37 to looped/cyclic peptides of protein N of SARS-CoV Urbani / Binding of serum 62 to looped/cyclic peptides of protein N of SARS-CoV Urbani / Binding of serum London to looped/cyclic peptides of protein N of SARS-CoV Urbani / Binding of serum SARS-green to looped/cyclic peptides of protein N of SARS-CoV Urbani: unit not given here
Sequence,Binding of antibody 03-018 to linear peptides of the N protein of SARS-CoV Urbani [1],Binding of antibody 03-018 to looped/cyclic peptides of the N protein of SARS-CoV Urbani [1],Binding of a rabbit serum to linear peptides of protein N of SARS-CoV Urbani (Rabbit serum linear peptides) [3],Binding of a rabbit serum to looped/cyclic peptides of protein N of SARS-CoV Urbani (Rabbit serum looped peptides) [3],Binding of serum 1a to linear peptides of protein N of SARS-CoV Urbani [4],Binding of serum 1a to looped/cyclic peptides of protein N of SARS-CoV Urbani [4],Binding of serum 1b to linear peptides of protein N of SARS-CoV Urbani [4],Binding of serum 1b to looped/cyclic peptides of protein N of SARS-CoV Urbani [4],Binding of serum 2 to linear peptides of protein N of SARS-CoV Urbani [4],Binding of serum 2 to looped/cyclic peptides of protein N of SARS-CoV Urbani [4],Binding of serum 6 to linear peptides of protein N of SARS-CoV Urbani [4],Binding of serum 6 to looped/cyclic peptides of protein N of SARS-CoV Urbani [4],Binding of serum 37 to linear peptides of protein N of SARS-CoV Urbani [4],Binding of serum 37 to looped/cyclic peptides of protein N of SARS-CoV Urbani [4],Binding of serum 62 to linear peptides of protein N of SARS-CoV Urbani [4],Binding of serum 62 to looped/cyclic peptides of protein N of SARS-CoV Urbani [4],Binding of serum London to linear peptides of protein N of SARS-CoV Urbani [4],Binding of serum London to looped/cyclic peptides of protein N of SARS-CoV Urbani [4],Binding of serum SARS-green to looped/cyclic peptides of protein N of SARS-CoV Urbani [4],Binding of serum SARS-yellow to looped/cyclic peptides of protein N of SARS-CoV Urbani [4],also measured
EGIVWVATEGALNTP,0.1,0.2,0.1,0.4,0.3,0.3,0.2,0.2,0.3,0.4,0.2,0.2,0.8,0.7,0.7,0.6,0.5,0.3,0.4,0.6,Binding of Control Serum Blood-Bank to Looped peptides [2]: 0.6; Binding of Control serum Blood-bank to linear peptides [2]: 0.8; Binding of Control serum LUMC to linear peptides [2]: 0.8; Binding of Control serum LUMC to looped peptides [2]: 0.6; Binding of serum SARS-green to linear peptides of protein N of SARS-CoV Urbani [4]: 0.4; Binding of serum SARS-yellow to linear peptides of protein N of SARS-CoV Urbani [4]: 0.6
EGSRGGSQASSRSSS,0.1,0.2,0.2,0.7,–,0.4,–,0.3,–,0.4,–,0.6,–,0.6,–,0.4,–,0.4,0.7,0.7,Binding of Control Serum Blood-Bank to Looped peptides [2]: 0.7; Binding of Control serum Blood-bank to linear peptides [2]: 1.0; Binding of Control serum LUMC to linear peptides [2]: 1.0; Binding of Control serum LUMC to looped peptides [2]: 0.8; Binding of serum 1a to linear peptide (PEPSCAN-ELISA) [4]: 0.3; Binding of serum 1b to linear peptide (PEPSCAN-ELISA) [4]: 0.2; Binding of serum 2 to linear peptide (PEPSCAN-ELISA) [4]: 0.3; Binding of serum 6 to linear peptide (PEPSCAN-ELISA) [4]: 0.4; Binding of serum 37 to linear peptide (PEPSCAN-ELISA) [4]: 0.9; Binding of serum 62 to linear peptide (PEPSCAN-ELISA) [4]: 0.8; Binding of serum London to linear peptide (PEPSCAN-ELISA) [4]: 0.5; Binding of serum SARS-green to linear peptide (PEPSCAN-ELISA) [4]: 0.6; Binding of serum SARS-yellow to linear peptide (PEPSCAN-ELISA) [4]: 0.6
EVTPSGTWLTYHGAI,0.1,0.2,0.1,0.3,0.2,0.4,0.1,0.3,0.1,0.5,0.2,0.3,0.7,0.8,0.5,0.9,0.4,0.5,0.7,0.4,Control Serum Blood-Bank Looped peptides [2]: 0.8; Control serum Blood-bank linear peptides [2]: 0.7; Control serum LUMC linear peptides [2]: 0.6; Control serum LUMC looped peptides [2]: 0.7; Binding of serum SARS-green to linear peptides of protein N of SARS-CoV Urbani [4]: 0.1; Binding of serum SARS-yellow to linear peptides of protein N of SARS-CoV Urbani [4]: 0.5
FAPSASAFFGMSRIG,0.1,0.2,0.0,0.3,0.2,0.3,0.1,0.1,0.2,0.4,0.1,0.3,0.6,0.5,0.5,0.4,0.4,0.9,0.0,0.5,Control Serum Blood-Bank Looped peptides [2]: 0.4; Control serum Blood-bank linear peptides [2]: 0.5; Control serum LUMC linear peptides [2]: 0.6; Control serum LUMC looped peptides [2]: 0.4; Binding of serum SARS-green to linear peptides of protein N of SARS-CoV Urbani [4]: 0.4; Binding of serum SARS-yellow to linear peptides of protein N of SARS-CoV Urbani [4]: 0.5
